Experimental findings from ChEMBL document CHEMBL5357058, “Norterpene Cyclic Peroxides from the Marine Sponge Diacarnus spinipoculum, Inhibitors of Transient Receptor Potential Ankyrin 1” (J Nat Prod, 2024) are described below.

The term IC50 denotes the concentration that gives 50% inhibition.

Where only a bound is given, the exact number is not on record here.

The target of the test is Transient receptor potential cation channel subfamily A member 1 (Homo sapiens, UniProt O75762). Kind of test: Inhibition of human TRPA1 overexpressed in HEK293 cells assessed as reduction in AITC-induced calcium mobilization preincubated for 5 mins followed by AITC addition by FLIPR assay. Type of test: cell-based. Background: Calcium flux is commonly read through the fluorescence of an indicator in the cells.
Chain of Transient receptor potential cation channel subfamily A member 1 (O75762 whole entry): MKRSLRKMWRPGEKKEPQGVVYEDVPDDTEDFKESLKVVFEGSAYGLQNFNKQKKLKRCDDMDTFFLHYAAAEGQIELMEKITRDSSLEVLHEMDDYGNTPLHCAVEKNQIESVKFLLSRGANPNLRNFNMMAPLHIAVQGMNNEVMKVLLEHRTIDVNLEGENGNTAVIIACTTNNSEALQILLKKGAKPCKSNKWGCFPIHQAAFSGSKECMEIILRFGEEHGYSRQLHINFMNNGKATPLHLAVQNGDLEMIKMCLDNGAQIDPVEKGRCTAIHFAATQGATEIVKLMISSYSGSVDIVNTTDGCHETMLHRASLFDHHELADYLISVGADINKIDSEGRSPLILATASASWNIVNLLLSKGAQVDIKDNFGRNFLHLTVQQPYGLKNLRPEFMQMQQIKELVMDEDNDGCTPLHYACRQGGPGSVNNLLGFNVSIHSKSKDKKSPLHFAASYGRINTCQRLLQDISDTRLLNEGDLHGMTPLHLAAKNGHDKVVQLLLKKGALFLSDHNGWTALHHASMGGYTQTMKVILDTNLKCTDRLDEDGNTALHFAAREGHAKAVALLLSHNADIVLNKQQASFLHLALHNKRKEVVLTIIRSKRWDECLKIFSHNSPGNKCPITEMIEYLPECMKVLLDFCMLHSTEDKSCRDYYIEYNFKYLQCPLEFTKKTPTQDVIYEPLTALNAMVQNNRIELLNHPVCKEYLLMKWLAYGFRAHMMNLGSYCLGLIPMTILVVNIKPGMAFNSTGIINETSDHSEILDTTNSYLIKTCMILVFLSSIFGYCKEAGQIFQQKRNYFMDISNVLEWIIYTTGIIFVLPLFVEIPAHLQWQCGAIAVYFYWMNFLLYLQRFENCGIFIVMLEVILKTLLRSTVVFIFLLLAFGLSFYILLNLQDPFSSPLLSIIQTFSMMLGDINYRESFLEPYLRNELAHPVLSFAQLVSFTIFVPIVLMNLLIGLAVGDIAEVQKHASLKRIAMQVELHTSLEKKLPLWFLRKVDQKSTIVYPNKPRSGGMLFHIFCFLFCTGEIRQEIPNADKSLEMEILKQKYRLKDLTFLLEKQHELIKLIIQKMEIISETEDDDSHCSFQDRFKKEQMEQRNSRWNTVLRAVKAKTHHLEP
As to `CC1=C(CC[C@]2(C)CC[C@H]([C@@H](C)C(=O)O)OO2)C(C)(C)CCC1`, the half-inhibitory concentration (IC50) was more than 30 µM.

For `C=C1CCCC(C)(C)C1CC[C@]1(C)CC[C@@H]([C@@H](C)C(=O)OC)OO1` (some centres not stated), the half-inhibitory concentration (IC50) is more than 30 µM.

In the case of `COC(=O)[C@H](C)[C@@H]1CC[C@@](C)(CCC2=C(C)CCCC2(C)C)OO1`, the IC50 came out at 29.3 µM. As for `CC1=C(CC/C(C)=C/CC[C@]2(C)CC[C@@H]([C@H](C)C(=O)O)OO2)C(C)(C)CCC1`, the IC50 was determined as 5.6 µM. Next, `CC1=C(CC/C(C)=C/CC[C@@]2(C)CC[C@@H]([C@H](C)C(=O)O)OO2)C(C)(C)CCC1=O`: 15.3 µM.

Turning to `C=C1CCC[C@H]2[C@](C)(CC[C@@]3(C)CC[C@H]([C@@H](C)C(=O)O)OO3)[C@@H](C)CC[C@]12C`, the concentration for half-maximal inhibition (IC50) stood at 2 µM. In the case of `C=C1CCC[C@H]2[C@](C)(CC[C@@]3(C)CC[C@H]([C@@H](C)C(=O)OC)OO3)[C@@H](C)CC[C@]12C`, the IC50 came to 13.5 µM. Turning to `COC(=O)[C@H](C)[C@H]1CC[C@@](C)(CCC2=C(C)C(O)CCC2(C)C)OO1` (mixture of isomers), the IC50 is more than 30 µM. Turning to `COC(=O)[C@H](C)[C@@H]1CC[C@@](C)(CCC2=C(C)C(O)CCC2(C)C)OO1` (mixture of isomers), the IC50 is more than 30 µM. Next, `COC(=O)[C@H](C)[C@@H]1CC[C@@](C)(CCC2=C(C)C(OC)CCC2(C)C)OO1` (mixture of isomers): more than 30 µM; `COC(=O)[C@H](C)[C@H]1CC[C@@](C)(CCC2=C(C)C(OC)CCC2(C)C)OO1` (mixture of isomers): more than 30 µM; `CC(=O)CCCC(C)(C)C(=O)CC/C(C)=C/CC[C@]1(C)CC[C@H]([C@@H](C)C(=O)O)OO1` [(+)-MUQUBILONE B]: more than 30 µM. With `COC(=O)[C@H](C)[C@H]1CC[C@@](C)(CCC2=C(C)C(=O)CCC2(C)C)OO1` [DIACARPEROXIDE A], the half-maximal inhibitory concentration (IC50) worked out at 22.1 µM. With `CC1=C(CC/C(C)=C/CC[C@@]2(C)CC[C@@H]([C@H](C)C(=O)O)OO2)C(C)(C)CCC1` [EPIMUQUBILIN A] the figure was 4.8 µM; with `COC(=O)[C@H](C)[C@@H]1CC[C@@](C)(CCC2=C(C)C(=O)CCC2(C)C)OO1` [METHYL DIACARNOATE A], more than 30 µM. `COC(=O)[C@H](C)[C@H]1CC[C@@](C)(CCC2=C(C)CCCC2(C)C)OO1` [NUAPAPUIN A METHYL ESTER]: the concentration for half-maximal inhibition (IC50) was found to be 14.1 µM. Regarding `C=C1CCCC(C)(C)C1CC[C@]1(C)CC[C@H]([C@@H](C)C(=O)OC)OO1` (some centres not stated) [NUAPAPUIN B], the IC50 came out at 18.9 µM.
